Assay results: patent US6815448B2, “Azaheterocyclylmethyl derivatives of 7,8-dihydro-1,6,9-trioxa-3-aza-cyclopenta[a]naphthalene as 5-HT1A antagonists” (Wyeth, priority 2001, dated 2004)
Counter-ions that a name gives are not always drawn. Like-named read-outs stand apart in the source and are kept apart here.

Tests used:
[1] = molecular target: T1, human 5-HT1A receptors (Homo sapiens, UniProt P08908); assay: [3H] 8-OH-DPAT displacement from 5-HT1A receptor; type: binding; settings: CHO cells stably transfected with human 5-HT1A receptors, read-out: 5-HT1A Receptor Affinity KI
T1 construct: expressed in transfected cells; host or cells: CHO cells
T1 sequence (P08908 1-422): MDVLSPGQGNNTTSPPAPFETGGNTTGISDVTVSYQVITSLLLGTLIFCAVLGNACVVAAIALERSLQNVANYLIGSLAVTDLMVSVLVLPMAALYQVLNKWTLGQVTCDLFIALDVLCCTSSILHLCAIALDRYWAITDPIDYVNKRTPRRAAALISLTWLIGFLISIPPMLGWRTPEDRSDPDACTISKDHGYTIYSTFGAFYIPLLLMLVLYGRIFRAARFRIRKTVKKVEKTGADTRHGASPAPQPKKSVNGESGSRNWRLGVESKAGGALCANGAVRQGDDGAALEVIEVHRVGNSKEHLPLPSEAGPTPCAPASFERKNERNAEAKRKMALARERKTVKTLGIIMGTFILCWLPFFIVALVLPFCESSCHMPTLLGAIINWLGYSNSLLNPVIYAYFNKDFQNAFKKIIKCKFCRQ
From the text: High affinity for the serotonin 5-HT1A receptor was established by testing the claimed compound's ability to displace [^3H] 8-OH-DPAT (dipropylaminotetralin) from the 5-HT1A serotonin receptor following a modification of the procedure of Hall et al. J. Neurochem. 44, 1685 (1985) which utilizes CHO cells stably transfected with human 5-HT1A receptors.

[2] = molecular target: T2, cloned human 5-HT1A receptors (Homo sapiens, UniProt P08908); assay: 35S-GTPγS binding assay, reversal of the standard agonist 8-OH-DPAT; type: biochemical; settings: for 5-HT1A Function Imax (maximum inhibitory effect): value in parentheses
T2 construct: expressed in transfected cells
T2 sequence (P08908 1-422): T1 sequence (P08908 1-422)
Experimental: Antagonist activity at 5-HT1A receptors was established by using a ^35S-GTPγS binding assay similar to that used by Lazareno and Birdsall (Br. J. Pharmacol. 109: 1120, 1993), in which the test compound's ability to affect the binding of ^35S-GTPγS to membranes containing cloned human 5-HT1A receptors was determined. Agonists produce an increase in binding whereas antagonists produce no increase but rather reverse the effects of the standard agonist 8-OH-DPAT. The test compound's maximum inhibitory effect is represented as the Imax, while its potency is defined by the IC50.

[3] = 35S-GTPγS binding, membranes with cloned human 5-HT1A receptors, antagonist potency, read-out: 5-HT1A Function IC50

Structure (SMILES) | melting point | Ki [1] | IC50 [2] | 5-HT1A Function Imax (maximum inhibitory effect) ([2]; 35S-GTPγS binding) | IC50 [2, 3]
Cc1nc2ccc3c(c2o1)OC(CN1CCC(C(=O)c2ccc(F)cc2)CC1)CO3 (centres unmarked) (as salt: fumarate) [Example 4, (4-Fluorophenyl) (1-[2-methyl-7,8-dihydro-1,6,9-trioxa-3-aza-cyclopenta[a]naphthalen-8-ylmethyl]-4-piperidinyl)methanone] | 229 to 230 °C |  |  |  | 
Cc1nc2ccc3c(c2o1)OC(CN1CCCCC1)CO3 (centres unmarked) [Example 6, 2-Methyl-8-(piperidin-1-ylmethyl)-7,8-dihydro-1,6,9-trioxa-3-aza-cyclopenta[a]naphthalene] |  | 0.173 µM |  |  | 
Cc1nc2ccc3c(c2o1)O[C@@H](CN1CC=C(c2cccc(C(F)(F)F)c2)CC1)CO3 (as salt: fumarate) [Example 5] | 170 to 173 °C |  |  |  | 
Cc1nc2ccc3c(c2o1)OC(CN1CCC(O)(c2cccc(C(F)(F)F)c2)CC1)CO3 (centres unmarked) [Example 3, 1-(2-Methyl-7,8-dihydro-1,6,9-trioxa-3-aza-cyclopenta[a]naphthalen-8-ylmethyl)-4-[3-(trifluoromethyl)phenyl]-4-piperidinol] | 148 to 151 °C | 0.00652 µM | 0.047 µM | 47.0 (47.0) | 
Cc1nc2ccc3c(c2o1)OC(CN1CCC(n2c(=O)[nH]c4ccccc42)CC1)CO3 (centres unmarked) [Example 2, 1-[1-(2-Methyl-7,8-dihydro-1,6,9-trioxa-3-aza-cyclopenta[a]naphthalen-8-ylmethyl)-piperidin-4-yl]-1,3-dihydro-2H-benzimidazol-2-one] | 218 to 220 °C | 0.001 µM | 0.0027 µM | 42.0 | 
Cc1nc2ccc3c(c2o1)OC(CN1CCC2(CC1)C(=O)NCN2c1ccccc1)CO3 (centres unmarked) [Example 1, 8-(2-Methyl-7,8-dihydro-1,6,9-trioxa-3-aza-cyclopenta[a]naphthalen-8-ylmethyl)-1-phenyl-1,3,8triazaspiro[4.5]decan-4-one] |  | 0.00093 µM |  | 60.0 | 1.05 µM
Cc1nc2ccc3c(c2o1)O[C@@H](CN1CC=C(c2cccc(C(F)(F)F)c2)CC1)CO3 [Example 5] |  | 0.0394 µM |  | 97.0 | 0.798 µM
Cc1nc2ccc3c(c2o1)OC(CN1CCC(C(=O)c2ccc(F)cc2)CC1)CO3 (centres unmarked) [Example 4, (4-Fluorophenyl) (1-[2-methyl-7,8-dihydro-1,6,9-trioxa-3-aza-cyclopenta[a]naphthalen-8-ylmethyl]-4-piperidinyl)methanone] |  | 0.202 µM |  |  | 
Cc1nc2ccc3c(c2o1)OC(CN1CCC2(CC1)C(=O)NCN2c1ccccc1)CO3 (centres unmarked) (as salt: fumarate) [Example 1, 8-(2-Methyl-7,8-dihydro-1,6,9-trioxa-3-aza-cyclopenta[a]naphthalen-8-ylmethyl)-1-phenyl-1,3,8triazaspiro[4.5]decan-4-one] | 240 °C |  |  |  | 
Cc1nc2ccc3c(c2o1)OC(CN1CCCCC1)CO3 (centres unmarked) (as salt: fumarate) [Example 6, 2-Methyl-8-(piperidin-1-ylmethyl)-7,8-dihydro-1,6,9-trioxa-3-aza-cyclopenta[a]naphthalene] | 109 to 112 °C |  |  |  | 
